Data taken from patent US20250040539A1, “COMPOSITION COMPRISING AN ANTIMICROBIAL AGENT AND A CARBOXAMIDE” (BASF SE, priority 2021, published 2025).

Legend:
Type in all cases: cell-based
[1] = tested on: fungal mix: Aspergillus brasiliensis DSM 1988, Rhodotorula mucilaginosa DSM 13621, Yarrowia lipolytica DSM 8218; assay: Preservative activity in a hard surface cleaner composition (HSC, pH 7.0) with 2-phenoxyethanol against fungal mix (Example 1.5); conditions: HSC + 1.35% PE, no amide (Comparative 2)
Protocol: A manual hard surface cleaner (HSC) of pH 7.0 containing the following components was used:
(§1) The samples were contaminated with a fungal mix consisting of: • Aspergillus brasiliensis DSM 1988 • Rhodotorula mucilaginosa DSM 13621 • Yarrowia lipolytica DSM 8218
The samples were inoculated with the fungal mix at day 0 and 7 to obtain 1-3×10E+05 CFU/ml inoculation in the test sample consisting of the above-defined hard surface cleaner HSC and stored at 25° C. for 21 days. CFU was determined before re-inoculation at day 7, and on days 14 and 21.

[2] = tested on: fungal mix: Aspergillus brasiliensis DSM 1988, Rhodotorula mucilaginosa DSM 13621, Yarrowia lipolytica DSM 8218; assay: Preservative activity in a diluted non-ionic surfactant solution (1% Lutensol ON 70, pH 7.0) with 2-phenoxyethanol against fungal mix (Example 1.6); conditions: Surfactant solution + 0.81% PE, no amide (Comparative 2)
Description: A surfactant solution in phosphate buffer of pH 7.0 containing 1% by weight of Lutensol ON 70, a C10-fatty alcohol ethoxylated with 7EO, was used.
as §1
The samples were inoculated with the fungal mix at day 0 and 7 to obtain 1-3×10E+05 CFU/ml inoculation in the test sample consisting of the above-defined surfactant solution and stored at 25° C. for 14 days. CFU was determined before re-inoculation at day 7, and on day 14.
Any CFU value at d7 and d14 obtained with a surfactant solution sample of the invention containing 2-phenoxyethanol and amide (surfactant solution+0.81% PE+0.09% of amide) lower than the respective value of the “comparative 2” example (surfactant solution+0.81% by weight of 2-phenoxyethanol) indicates a better performance of the inventive combination of 2-phenoxyethanol with the amide.

[3] = tested on: bacterial mix: Escherichia coli DSM 1576, Alcaligenes faecalis DSM 13644, Pseudomonas aeuginosa ATCC 15442, Staphylococcus aureus ATCC 6538, Burkholderia …; assay: Preservative activity of a basic composition (10% PG in water, pH 7) with 2-phenoxyethanol against bacterial contamination (Example 2.1); conditions: 10% PG + 0.4% PE, no amide (Comparative 2)
[4] = tested on: bacterial mix: Escherichia coli DSM 1576, Alcaligenes faecalis DSM 13644, Pseudomonas aeruginosa ATCC 15442, Staphylococcus aureus ATCC 6538, Burkholderia …; assay: Preservative activity in a manual dishwashing composition (MDW, pH 7.1) with 2.0% 2-phenoxyethanol against bacterial mix (Example 2.4); conditions: MDW + 2.0% PE, no amide (Comparative 2)
Protocol: A manual dish wash detergent (MDW) of pH 7.1 containing the following components was used:
(§2) The samples were contaminated with a bacterial mix consisting of: • Escherichia coli DSM 1576 • Alcaligenes faecalis DSM 13644 • Pseudomonas aeruginosa ATCC 15442 • Staphylococcus aureus ATCC 6538 • Burkholderia cepacia DSM 7288 • Pseudomonas putida DSM 12735
The samples were inoculated with the bacterial mix at day 0 and 7 to obtain 10E+06 to 10E+07 CFU/ml inoculation in the test sample and stored at 25° C. for 21 days. CFU was determined before re-inoculation at day 7 and on days 14 and 21.
Any CFU value at day 7 (d7), day 14 (d14) or day 21 (d21) obtained with a sample according to the invention containing 2-phenoxyethanol and amide (MDW+2.0% PE+x % Amide) lower than the respective value of the “comparative 2” example (MOW+2.0% by weight of 2-phenoxyethanol) indicates a better performance.

[5] = tested on: bacterial mix: Escherichia coli DSM 1576, Alcaligenes faecalis DSM 13644, Pseudomonas aeruginosa ATCC 15442, Staphylococcus aureus ATCC 6538, Burkholderia …; assay: Preservative activity in a manual dishwashing composition (MDW, pH 7.1) with 1.0% 2-phenoxyethanol against bacterial mix (Example 2.5); conditions: MDW + 1.0% PE, no amide (Comparative)
Protocol: A manual dish wash detergent (MOW) of pH 7.1 containing the following components was used:
as §2
The samples were inoculated with the bacterial mix at day 0 and 7 to obtain 10E+06 to 10E+07 CFU/ml inoculation in the test sample and stored at 25° C. for 21 days. CFU was determined before re-inoculation at day 7 and on day 21.
Any CFU value at day 7 (d7) or day 21 (d21) obtained with a sample according to the invention containing 2-phenoxyethanol and amide (MDW+1.0% PE+1.0% Amide) lower than the respective value of the comparative example (MDW+1% by weight of 2-phenoxyethanol) indicates a better performance.

[6] = tested on: bacterial mix: Escherichia coli DSM 1576, Alcaligenes faecalis DSM 13644, Pseudomonas aeruginosa ATCC 15442, Staphylococcus aureus ATCC 6538, Burkholderia …; assay: Preservative activity of a basic composition (10% PG in water, pH 7) with 4,4'-dichloro-2-hydroxydiphenyl ether (diclosan) against bacterial contamination (Example 2.2); conditions: day 7
Protocol: An aqueous composition of pH 7 comprising 10% by weight of propyleneglycol (PG) as organic solvent, 0.015% by weight of 4,4′-dichloro-2-hydroxydiphenyl ether (diclosan) as antimicrobial and 0.04 or 0.1% by weight of the amides listed in the below table was tested for its preserving activity against bacterial contamination (the weight percentages relate to the total weight of the composition). For this purpose, the samples were contaminated with a bacterial mix consisting of: • Escherichia coli DSM 1576 • Alcaligenes faecalis DSM 13644 • Pseudomonas aeruginosa ATCC 15442 • Staphylococcus aureus ATCC 6538 • Burkholderia cepacia DSM 7288 • Pseudomonas putida DSM 12735
The samples were inoculated with the bacterial mix at day 0 to obtain 10E+06 to 10E+07 CFU/ml inoculation in the test sample and stored at 25° C. for 7 days.
CFU was determined at day 7.
Any CFU value at day 7 (d7) obtained with a sample according to the invention containing diclosan and amide (10% PG+0.015% diclosan+Amide in water) lower than the respective value of the “comparative 3” example (10% by weight of propyleneglycol+0.015% by weight of 4,4′-dichloro-2-hydroxydiphenyl ether (diclosan) in water) indicates a better performance.

OCCOc1ccccc1 [PE, 2-phenoxyethanol, reference compound]
d7 [CFU/ml] ([1]; day 7): 37,000 CFU/ml
d14 [CFU/ml] ([1]; day 14): 36,000 CFU/ml
d21 [CFU/ml] ([1]; day 21): 3200 CFU/ml
d7 [CFU/ml] ([2]; day 7): 16,500 CFU/ml
d14 [CFU/ml] ([2]; day 14): 45,00 CFU/ml
d7 [CFU/ml] ([3]; day 7): 65,000 CFU/ml
d14 [CFU/ml] ([3]; day 14): >100,000 CFU/ml
d21 [CFU/ml] ([3]; day 21): >100,000 CFU/ml
d7 [CFU/ml] ([4]; day 7): 330 CFU/ml
d14 [CFU/ml] ([4]; day 14): 2,800 CFU/ml
d21 [CFU/ml] ([4]; day 21): 38,500 CFU/ml
d7 [CFU/ml] ([5]; day 7): 820 CFU/ml
d21 [CFU/ml] ([5]; day 21): 135 CFU/ml

CCCCCCCCCC(=O)N(C)C [n-Decanoyl-N,N-dimethylamide]
d7 [CFU/ml] ([6]; 10% PG + 0.015% diclosan + 0.1% amide): 43,000 CFU/ml
d7 [CFU/ml] ([6]; 10% PG + 0.1% amide, no diclosan (Comparative 1b)): >100,000 CFU/ml
